Measured values: patent publication US8476317B2, “N-alkylcarbonyl-amino acid ester compounds and their use for cough and pharyngitis” (priority 2011, dated 2013)

Columns and labels:
Format in all cases: in vivo, human
cough = settings: for cooling action of ODT on the pharyngeal surface: Study 6, ODT; for effectiveness in reducing cough: Study 6, ODT 2.0 to 2.5 mg, 14 adult males with cough
Procedure: In 20 trials, 10 trials per subject, two mg of 95%+ pure powder of a D-Ala ethyl compound (No. 2 in Table 1, (R)-2-[((1R,2S,5R)-2-isopropyl-5-methyl-cyclohexanecarbonyl)-amino]-propionic acid ethyl ester)) of Formula (1) was placed on the mid-portion of the tongue of these two subjects. Both subjects reported relief from the desire to cough within 1 minute after application. Sensations of robust coolness in the back of the throat was noted and lasted for about 30 minutes. Applications of similar amounts of powdered sugar were not effective. The placebo could be clearly distinguished from the active compound because of the absence of cooling sensations.
A person with a documented 31-year history of asthma attacks volunteered to test one of the compounds falling within Formula (1). They were extremely sensitive to agents such as tobacco smoke, dust, pollen, odors, down/woolen materials, house cleansing products, pets, and sudden change of air temperature, and reacted with violent coughing, mucus secretions, wheezing, choking, and shortness of breath. At the time of this trial, they were taking these medications for their condition: theophylline, Allegra®, Advair®, Intal®, and Singulair®. In 5 trials, during a coughing spree, they placed one to two mg of 95%+ pure powder of a D-Ala ethyl ester (No. 2 in Table 1, ((R)-2-[((1R,2S,5R)-2-isopropyl-5-methyl-cyclohexanecarbonyl)-amino]-propionic acid ethyl ester))) of Formula (1) on the mid-portion of their tongue. They reported a soothing and cool sensation with a slight taste similar to Eucalyptus oil in their mouth and throat. Coughing stopped after 3 to 5 minutes and breathing was normal. […] In three trials when the compound was applied at night, they slept through the night without being awakened by cough. Their spouse remarked that, in over 30 years of marriage, this was the first time that they had seen an effective medication for their cough. They noted that the irritative signals of cough were absent in the presence of the applied chemical, but they still sensed a mechanical build up of secretions in their airways and could voluntarily cough up such secretions if necessary. They continue to use the test compound for management of their asthma, with the knowledge and consent of their physician.
A person had adult-onset asthma for 20 years. Triggers for attacks were tobacco smoke, dust, and changes in air temperature. They used Foradil® (formoterol fumarate) and Asmanex® (mometasone fuorate) twice a day to control their asthma, and monitored their pulmonary function with a portable device for measuring peak expiratory flow. They had daily episodes of both productive and non-productive cough. In 5 trials, when they felt throat irritation and a desire to cough, placement of 1 to 3 mg of (R)-2-[((1R,2S,5R)-2-isopropyl-5-methyl-cyclohexanecarbonyl)-amino]-propionic acid ethyl ester) (No. 2 in Table 1) provided rapid relief and was described as soothing and removed “tightness” in the chest. Peak expiratory flow improved from 320 Umin to 370 Umin. […] The subjective response to the long-acting NACE compound was definitely favourable. The subject remarked that the best time to use the NACE compuound was after inhaling the crystalline Foradil® because this inhaled drug irritated their throat.
ODT containing 2.0 to 2.5 mg of D-Aa Me Ester, D-Ala Et Ester, or D-Ala iPr Ester (identified chemically in Table 1 as No. 1, No. 2, and No. 3, respectively) were prepared using mannitol/maltitol as the excipient and stored in tic-tac boxes each containing 10 tablets. Over a course of two years, 14 adult males with cough tested these tablets. The causes of coughing were colds/flu, allergies, pharyngitis, excessive smoking, and two cases of gastroesophageal reflux. These individuals all had advanced degrees (M.D. or Ph.D.) and were motivated to try the tablets by scientific curiosity or because of financial interests in drug development, or, in several cases, by the annoyance caused by the cough. […]

ocular surface = assay: Eye wipe test, duration of cooling on ocular surface; settings: eye wipes 1 mg/ml in 5%-95% v/v ethanol-distilled water
Procedure: To further document the activities fo the test molecules, the results from an eye wipe test was included. Here the test substance is applied to the closed eyelids with a towelette at a concentration of 1 mg/ml in 5%-ethanol-95%-distilled water vol/vol and the duration of cooling on the ocular surface was recorded. […] It is likely that the mucous membranes that line the ocular surface and the pharynx have similar sensory mechanisms that are somewhat different from the philtrum skin which is keratinized.

pharyngeal surface = assay: Chili-pepper sauce cough challenge test; parameters: key: If there is no attenuation of the challenge stimuli, the score is 0; if there is partial inhibition, the score is +; if there is complete attenuation of the cough signal, the score is ++; settings: challenge 45 to 50 min after ODT containing 2 mg of test substance
Source text: A number of cough challenge methods have been devised for evoking the cough reflex (Morice et al. Briti. J. Clin. Pharmacol. 52: 365-375, 2001). Usually, citric acid or capsaicin is delivered via the inhalation route to volunteers and the number of coughs counted. […] The chili pepper sauce used here is called Yank Sing® Chili Pepper Sauce (YS Gourmet Productions, Inc., PO Box 26189, San Francisco, Calif. 94126) and is a well-known condiment for use with dim sum (Chinese tea lunch). The sensations associated with the chili pepper sauce are located in the back of the mouth and are clearly recognized and associated with a desire to clear the throat. […] To test for anti-cough activity the ODT with the test substance is first administered onto the dorsal surface of the tongue and 45 to 50 min afterwards the chili-pepper sauce test is administered. If there is no attenuation of the challenge stimuli, the score is 0, if there is partial inhibition, the score is +, and if there is complete attenuation of the cough signal, the score is ++. In the presence of an ODT that results in a ++ score, the irritative signals are completely absent, yet the salty taste used in the soy sauce of the condiment can still be easily tasted. The test substances in the ODT that produced a ++ score were then identified and further tested for effectiveness in the treatment of cough.

SMILES	duration of absence of irritation and itching at the back of the throat (cough signals) (cough; Study 3) [h]	time individual was observed not to cough (cough; Study 3) [h]	time desire to cough was removed (cough; Study 3, after 4 or 6 applications within 2 days)	time to relief from the desire to cough (cough; Study 3, two cigar smokers, two mg powder on tongue) [min]	duration of robust coolness in the back of the throat (cough; Study 3, two mg powder on tongue)	time until coughing stopped (cough; Study 4, asthmatic, one to two mg on tongue) [min]	recurrence of asthmatic coughing attacks (cough; Study 4, continued use)	effect when given in the midst of a productive cough spell (cough; Study 5, 3 episodes)	relief of throat irritation and desire to cough (cough; Study 5, 5 trials, 1 to 3 mg)	Peak expiratory flow (cough; Study 5, asthmatic, 1 to 3 mg, improved from 320) [Umin]	cooling action of ODT on the pharyngeal surface (cough)	effectiveness in reducing cough (cough) [%]	side-effects (cough; human, in vivo)	Eyelids/Ocular Surface (min), duration of cooling (ocular surface) [min]	Chili-Pepper Sauce Test (pharyngeal surface)
CCOC(=O)[C@@H](C)NC(=O)[C@@H]1C[C@H](C)CC[C@H]1C(C)C [D-Ala-OEt, (R)-2-[((1R,2S,5R)-2-isopropyl-5-methyl-cyclohexanecarbonyl)-amino]-propionic acid ethyl ester]	4 to 5	6 to 8	at least 5 days	≤ 1	about 30 minutes	3 to 5	have not recurred with any severity for one month	no significant effects were observed	rapid relief	370	robust cooling action	100	did not sense any build up of mucus or other side-effects	180	++
COC(=O)[C@@H](C)NC(=O)[C@@H]1C[C@H](C)CC[C@H]1C(C)C [D-Ala-OMe, (R)-2-[((1R,2S,5R)-2-isopropyl-5-methyl-cyclohexanecarbonyl)-amino]-propionic acid methyl ester]											robust cooling action	100		120	++
CCOC(=O)C(C)NC(=O)[C@@H]1C[C@H](C)CC[C@H]1C(C)C (stereo partly drawn) [L-Ala-OEt]											inactive			0	0
